Source: patent US4061645A, “2-Trichloromethyl-5-methylsulfinyl-1,3,4-thiadiazole” (Schering Aktiengesellschaft, priority 1972, dated 1977)

Key:
[1] = tested on: Rhizoctonia solani; test: Rhizoctonia solani infested compost soil, marrow peas (Example 3); type: in vivo; conditions: for Weight of fresh plant: 3 weeks; for Number of sound peas after 3 wks.: of 25 grains
Excerpt: Steamed compost soil was inoculated with mycelium of Rhizoctonia solani. After homogeneous mixture of the products with the infested soil, the products were present in the form of 20% powder preparations, the seeding of 25 grains of marrow peas of the variety "Miracle of Kelvedon" per concentration was effected without waiting period in clay dishes holding 1 liter of soil. The table lists the number of germinated sound peas, the weight of the fresh plant, and a root evaluation after a cultivation period of three weeks at 22°-25° C.

[2] = tested on: Fusarium oxysporum f. callistephi; test: Fusarium infested compost soil, Callistephus chinesis seedlings (Example 5); type: in vivo; conditions: of 4 seedlings
Excerpt: Steamed compost soil was inoculated with a spore suspension of Fusarium oxysporum f. callistephi. After homogeneous mixture of the products with the infested soil, the products were present as 20% powder preparations, and after a waiting period of 8 days, there were set out per concentration 4 seedlings of Callistephus chinesis, master aster "Sun Ray" as host plants.

[3] = tested on: Rhizoctonia solani; test: Limit concentration of soil-fungicidal effectiveness, Rhizoctonia solani, infested soil seeded with peas (Example 1); type: in vivo; conditions: soil, 480 h, 20 to 23 days, 22°-25° C, read-out: Limit concentration of the fungicidal effectiveness
Outline: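 Compound mixed homogeneously into steamed compost soil inoculated with Rhizoctonia solani mycelium, and 25 marrow pea seeds ("Miracle of Kelvedon") sown per concentration without a waiting period. Grown 20 to 23 days at 22°-25° C. Limit concentration is the lowest giving sound, necrosis-free roots and at least 90% germination relative to steamed soil.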

[4] = tested on: Pythium ultimum; test: Fungistatic and fungicidal action on Pythium ultimum with varying active ingredient percentages (Example 4); type: in vivo
Excerpt: Comparison of the fungistatic and fungicidal action on Pythium ultimum when using preparations with varyng active ingredient percentages on siliceous clay. Steamed compost soil was inoculated with mycelium of Pythium ultimum. After forming a homogeneous mixture of the products with the infested soil, […], the seeding of 25 grains of marrow peas of the variety "Miracle of Kelvedon" per concentration in clay dishes holding 1 liter of soil followed without a waiting period. In the table is stated the fresh number of germinated sound peas, the weight of the fresh plant, and a root evaluation after a cultivation period of three weeks at 22°-25° C.

[5] = tested on: Damping-off Fungi; test: Cotton seed disinfection, normal compost soil (Example 6); type: in vivo; conditions: 100 mg active ingr. per kg of seed; 10% formulation; 15 days
Procedure: Cotton seeds disinfected with 10% formulations were seeded in normal compost soil (Damping-off Fungi), 25 grains per concentration. After a cultivation time of 15 days at 22°-25° C, the number of germinated sound cotton seedlings and their weight as fresh plants were determined.

[6] = tested on: Botrytis cinerea; test: Agar test (Example 7), Botrytis; type: cell-based; conditions: 10 ppm; 5 days at 22° C; control 100
Outline: (§1)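 Compound mixed into sterilised 2% malt extract/1.5% agar before solidification at 10 ppm. Plates inoculated with 100 spores of each fungus; colony diameter (mm) measured after five days at 22° C.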

[7] = tested on: Pyrenochaeta lycopersici; test: Control of Pyrenochaeta lycopersici, corky root disease of the tomato, open field (Example 9); type: in vivo; conditions: 10% granulate
Excerpt: Control of Pyrenochaeta lycopersici, corky root disease of the tomato.
On a naturally invested open field area, 2-dichloromethyl-5-methylsulfonyl-1,3,4-thiadiazole was scattered as a 10% granulate formulation and hoed in 20 cm deep. […] After a reaction period of three weeks, tomato plants of the variety "Ronald-M" which were 8 weeks old were set out at a distance from each other of 50 × 70 cm. The harvest results indicated in the table are average values of 40 plants per lot and refer to harvested ripe tomatoes.

[8] = tested on: Pythium ultimum; test: Pythium ultimum infested compost soil, marrow peas (Example 2); type: in vivo; conditions: for Weight of fresh plant: 3 weeks; for Number of sound peas after 3 wks.: of 25 grains
Excerpt: Steamed compost soil was inoculated with mycelium of Pythium ultimum.

[9] = tested on: Helminthosporium sativum; test: Agar test (Example 7), Helminthosporium; type: cell-based; conditions: 10 ppm; 5 days at 22° C; control 100
Outline: as §1

[10] = tested on: Asperqilus niger; test: Agar test (Example 7), Aspergillus; type: cell-based; conditions: 10 ppm; 5 days at 22° C; control 100
Outline: as §1

[11] = tested on: Meloidogyne incognita; test: Nematocidal action, infested compost soil, cucumber seeds (Example 8); type: in vivo; conditions: 30 days
Procedure: The products as 20% powder preparations were homogeneously admixed with a compost soil heavily infested by root gal nematodes. Without a waiting period, 20 cucumber seeds per concentration were seeded. After a cultivation time of 30 days at a temperature of 23°-25° C, the nematocidal action was evaluated by counting the root galls formed in the waterbath. The following table states the reduction of attack in percent. In the control, an average of 90 root galls per seedling had formed.

[12] = tested on: Colletotrichum gloeosporioides; test: Agar test (Example 7), Colletotrichum; type: cell-based; conditions: 10 ppm; 5 days at 22° C; control 100
Outline: as §1

[13] = tested on: Stemphylium ilicis; test: Agar test (Example 7), Stemphylium; type: cell-based; conditions: 10 ppm; 5 days at 22° C; control 100
Outline: as §1

[14] = 10 mg active ingr. per liter of soil
[15] = 20 mg active ingr. per liter of soil
[16] = 30 mg active ingr. per liter of soil
[17] = 5% formulation, 6 mg active ingr. per liter of soil
[18] = 5% formulation, 10 mg active ingr. per liter of soil
[19] = 10% formulation, 6 mg active ingr. per liter of soil
[20] = 10% formulation, 10 mg active ingr. per liter of soil
[21] = 20% formulation, 6 mg active ingr. per liter of soil
[22] = 20% formulation, 10 mg active ingr. per liter of soil
[23] = 10 g active ingr. per square meter
[24] = 20 g active ingr. per square meter

## CS(=O)(=O)c1nnc(C(Cl)Cl)s1 [Compound 17, 2-dichloromethyl-5-methylsulfonyl-1,3,4-thiadiazole]
[1]; [14]
  Weight of fresh plant: 0 g
  Number of sound peas after 3 wks.: 0
[1]; [15]
  Weight of fresh plant: 14 g
  Number of sound peas after 3 wks.: 23
[1]; [16]
  Weight of fresh plant: 14 g
  Number of sound peas after 3 wks.: 22
[2]; 50 mg active ingredient per liter of soil
  Number of attacked plants after 3 weeks: 0
[2]; 100 mg active ingredient per liter of soil
  Number of attacked plants after 3 weeks: 0
[3]
  minimal effective concentration: 20 µg/mL
[4]; [17]
  Number of sound peas after 3 weeks: 12
  Root evaluation (1-4): 1
  Weight of fresh plant: 9 g
[4]; [18]
  Number of sound peas after 3 weeks: 24
  Root evaluation (1-4): 4
  Weight of fresh plant: 20 g
[4]; [19]
  Number of sound peas after 3 weeks: 24
  Root evaluation (1-4): 1
  Weight of fresh plant: 15 g
[4]; [20]
  Number of sound peas after 3 weeks: 22
  Root evaluation (1-4): 4
  Weight of fresh plant: 24 g
[4]; [21]
  Number of sound peas after 3 weeks: 22
  Root evaluation (1-4): 2
  Weight of fresh plant: 17 g
[4]; [22]
  Number of sound peas after 3 weeks: 24
  Root evaluation (1-4): 4
  Weight of fresh plant: 16 g
[5]
  Sound plants in %: 100%
  Weight of fresh plant: 23 g
[6]
  diameter of the colonies: 0 mm
[7]; [23]
  Tomatoes per plant, relative to 0 g: 159%
  Weight of single tomato, relative to 0 g: 110%
  Yield per plant, relative to 0 g: 171%
[7]; [24]
  Tomatoes per plant, relative to 0 g: 165%
  Weight of single tomato, relative to 0 g: 130%
  Yield per plant, relative to 0 g: 213%
[8]; [14]
  Weight of fresh plant: 24 g
  Number of sound peas after 3 wks.: 23
[8]; [15]
  Weight of fresh plant: 22 g
  Number of sound peas after 3 wks.: 24
[8]; [16]
  Weight of fresh plant: 26 g
  Number of sound peas after 3 wks.: 24
[9]
  diameter of the colonies: 0 mm
[10]
  diameter of the colonies: 0 mm
[11]; 40 mg per liter of soil
  Nematocidal action in % (reduction of attack): 90%
[11]; 60 mg per liter of soil
  Nematocidal action in % (reduction of attack): 94%
[12]
  diameter of the colonies: 0 mm
[13]
  diameter of the colonies: 0 mm
